# Data as given in ChEMBL document CHEMBL3526086, “Identification of the oxidative and conjugative enzymes involved in the biotransformation of brivanib” (Drug Metab Dispos, 2012).
# How the values were obtained:
# Type in all cases: ADME
# Cytochrome P450 2A6 [1] = molecular target: T1, Cytochrome P450 2A6 (Homo sapiens, UniProt P11509); assay: Drug metabolism in human liver microsomes assessed as 2 uM tranylcypromine-mediated inhibition of CYP2A6-mediated (R)-1-(4-(4-fluoro-2-(hydroxymethyl)-1H-indol-5-yloxy)-5-methylpyrrolo[1,2-f][1,2,4]triazin-6-yloxy)propan-2-ol formation at 2 and 20 uM for 30 mins by LC/MS analysis; conditions: 0.5 h
# T1 sequence (P11509 whole entry): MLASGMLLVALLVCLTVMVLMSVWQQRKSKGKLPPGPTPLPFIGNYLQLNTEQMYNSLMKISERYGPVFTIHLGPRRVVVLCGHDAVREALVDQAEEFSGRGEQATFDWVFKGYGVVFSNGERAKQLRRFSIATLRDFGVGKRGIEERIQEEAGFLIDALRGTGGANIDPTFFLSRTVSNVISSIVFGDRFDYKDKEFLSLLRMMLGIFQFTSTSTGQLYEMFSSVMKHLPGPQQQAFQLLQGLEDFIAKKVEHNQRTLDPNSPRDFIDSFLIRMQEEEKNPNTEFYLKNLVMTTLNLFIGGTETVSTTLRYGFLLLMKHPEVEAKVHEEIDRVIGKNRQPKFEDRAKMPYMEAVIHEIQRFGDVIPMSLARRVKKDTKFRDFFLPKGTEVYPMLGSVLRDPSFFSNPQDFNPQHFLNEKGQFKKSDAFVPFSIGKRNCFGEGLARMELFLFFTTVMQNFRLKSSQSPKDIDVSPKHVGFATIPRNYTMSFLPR
# Cytochrome P450 2B6 [2] = molecular target: T2, Cytochrome P450 2B6 (Homo sapiens, UniProt P20813); assay: Drug metabolism in human liver microsomes assessed as 50 uM orphenadrine-mediated inhibition of CYP2B6-mediated (R)-1-(4-(4-fluoro-2-(hydroxymethyl)-1H-indol-5-yloxy)-5-methylpyrrolo[1,2-f][1,2,4]triazin-6-yloxy)propan-2-ol formation at 2 and 20 uM for 30 mins by LC/MS analysis; conditions: 0.5 h
# T2 sequence (P20813 whole entry): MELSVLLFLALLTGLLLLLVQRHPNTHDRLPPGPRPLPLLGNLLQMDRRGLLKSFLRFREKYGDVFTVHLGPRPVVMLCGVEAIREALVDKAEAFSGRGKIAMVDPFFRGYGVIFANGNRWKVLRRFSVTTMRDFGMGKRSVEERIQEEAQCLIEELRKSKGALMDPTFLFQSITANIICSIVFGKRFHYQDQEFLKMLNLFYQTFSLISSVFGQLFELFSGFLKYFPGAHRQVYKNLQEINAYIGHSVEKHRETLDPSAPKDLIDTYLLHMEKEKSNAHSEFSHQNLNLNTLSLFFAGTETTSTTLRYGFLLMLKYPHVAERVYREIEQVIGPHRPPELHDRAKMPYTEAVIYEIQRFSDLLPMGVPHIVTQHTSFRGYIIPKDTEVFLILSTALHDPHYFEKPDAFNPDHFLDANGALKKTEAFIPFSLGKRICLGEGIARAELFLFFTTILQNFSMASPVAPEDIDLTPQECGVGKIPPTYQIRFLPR
# Cytochrome P450 3A5 = Cytochrome P450 3A5 (Homo sapiens, UniProt P20815); assay: Drug metabolism assessed as human CYP3A5-mediated (R)-1-(4-(4-fluoro-2-(hydroxymethyl)-1H-indol-5-yloxy)-5-methylpyrrolo[1,2-f][1,2,4]triazin-6-yloxy)propan-2-ol formation at 2 and 20 uM for 20 mins by LC/MS analysis in presence of NADPH; conditions: recombinant enzyme
# Chain of Cytochrome P450 3A5 (P20815 whole entry): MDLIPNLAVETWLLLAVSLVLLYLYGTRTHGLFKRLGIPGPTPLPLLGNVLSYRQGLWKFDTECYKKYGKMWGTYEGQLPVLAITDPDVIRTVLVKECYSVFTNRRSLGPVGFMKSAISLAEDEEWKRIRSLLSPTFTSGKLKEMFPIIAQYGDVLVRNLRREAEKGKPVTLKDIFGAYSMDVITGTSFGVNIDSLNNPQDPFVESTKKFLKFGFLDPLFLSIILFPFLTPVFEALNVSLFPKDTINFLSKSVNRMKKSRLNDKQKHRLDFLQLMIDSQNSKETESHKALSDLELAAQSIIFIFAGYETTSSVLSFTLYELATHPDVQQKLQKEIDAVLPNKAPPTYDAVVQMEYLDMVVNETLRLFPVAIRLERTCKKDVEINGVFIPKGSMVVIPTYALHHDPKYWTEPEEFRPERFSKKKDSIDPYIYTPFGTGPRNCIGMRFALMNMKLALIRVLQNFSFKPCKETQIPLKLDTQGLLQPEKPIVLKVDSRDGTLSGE
# Cytochrome P450 2A6 [3] = molecular target: T1, Cytochrome P450 2A6; assay: Drug metabolism assessed as human CYP2A6-mediated (R)-1-(4-(4-fluoro-2-(hydroxymethyl)-1H-indol-5-yloxy)-5-methylpyrrolo[1,2-f][1,2,4]triazin-6-yloxy)propan-2-ol formation at 2 and 20 uM for 20 mins by LC/MS analysis in presence of NADPH; conditions: recombinant enzyme
# [4] = Activity of CYP3A4/CYP1A2 in human liver microsomes assessed as enzyme-mediated (R)-1-(4-(4-fluoro-2-(hydroxymethyl)-1H-indol-5-yloxy)-5-methylpyrrolo[1,2-f][1,2,4]triazin-6-yloxy)propan-2-ol formation in presence of NADPH
# [5] = Activity of CYP3A4/CYP1A2 in human liver microsomes assessed as enzyme-mediated (R)-1-(4-(4-fluoro-2-(hydroxymethyl)-1H-indol-5-yloxy)-5-methylpyrrolo[1,2-f][1,2,4]triazin-6-yloxy)propan-2-ol formation per mg protein in presence of NADPH
# Cytochrome P450 3A4 = Cytochrome P450 3A4 (Homo sapiens, UniProt P08684); assay: Activity of human CYP3A4 assessed as intrinsic clearance for enzyme-mediated (R)-1-(4-(4-fluoro-2-(hydroxymethyl)-1H-indol-5-yloxy)-5-methylpyrrolo[1,2-f][1,2,4]triazin-6-yloxy)propan-2-ol formation per picomole enzyme in presence of NADPH
# Chain of Cytochrome P450 3A4 (P08684 whole entry): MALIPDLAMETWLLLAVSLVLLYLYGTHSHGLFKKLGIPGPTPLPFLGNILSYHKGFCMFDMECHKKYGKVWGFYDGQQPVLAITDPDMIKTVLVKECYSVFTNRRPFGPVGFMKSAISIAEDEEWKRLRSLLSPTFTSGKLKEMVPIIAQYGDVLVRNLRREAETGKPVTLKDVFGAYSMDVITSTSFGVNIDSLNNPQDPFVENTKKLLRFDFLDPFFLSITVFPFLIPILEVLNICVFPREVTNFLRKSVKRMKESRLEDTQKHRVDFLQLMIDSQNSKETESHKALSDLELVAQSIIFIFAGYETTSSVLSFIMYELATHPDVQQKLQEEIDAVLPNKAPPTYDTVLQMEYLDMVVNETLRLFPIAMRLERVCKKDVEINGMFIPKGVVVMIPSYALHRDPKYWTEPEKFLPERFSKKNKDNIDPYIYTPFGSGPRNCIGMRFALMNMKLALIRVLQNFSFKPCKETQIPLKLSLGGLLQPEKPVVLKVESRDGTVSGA
# Liver microsome [6] = assay: Drug level in human liver microsomes assessed as compound formation treated with 2 uM [14C]brivanib alaninate for 60 mins by LC/MS analysis; conditions: 1 h
# Liver microsome [7] = assay: Drug level in human liver microsomes assessed as compound formation treated with 2 uM [14C]brivanib alaninate for 60 mins by LC/MS analysis in presence of NADPH; conditions: 1 h
# Liver microsome [8] = assay: Drug metabolism in human liver microsomes assessed as (R)-1-(4-(4-fluoro-2-(hydroxymethyl)-1H-indol-5-yloxy)-5-methylpyrrolo[1,2-f][1,2,4]triazin-6-yloxy)propan-2-ol formation at 2 and 20 uM for 30 mins by LC/MS analysis in presence of antibody for CYP3A4/5; conditions: 0.5 h
# Cytochrome P450 1A2 = molecular target: T3, Cytochrome P450 1A2 (Homo sapiens, UniProt P05177); assay: Activity of human CYP1A2 assessed as intrinsic clearance for enzyme-mediated (R)-1-(4-(4-fluoro-2-(hydroxymethyl)-1H-indol-5-yloxy)-5-methylpyrrolo[1,2-f][1,2,4]triazin-6-yloxy)propan-2-ol formation per picomole enzyme in presence of NADPH
# T3 sequence (P05177 whole entry): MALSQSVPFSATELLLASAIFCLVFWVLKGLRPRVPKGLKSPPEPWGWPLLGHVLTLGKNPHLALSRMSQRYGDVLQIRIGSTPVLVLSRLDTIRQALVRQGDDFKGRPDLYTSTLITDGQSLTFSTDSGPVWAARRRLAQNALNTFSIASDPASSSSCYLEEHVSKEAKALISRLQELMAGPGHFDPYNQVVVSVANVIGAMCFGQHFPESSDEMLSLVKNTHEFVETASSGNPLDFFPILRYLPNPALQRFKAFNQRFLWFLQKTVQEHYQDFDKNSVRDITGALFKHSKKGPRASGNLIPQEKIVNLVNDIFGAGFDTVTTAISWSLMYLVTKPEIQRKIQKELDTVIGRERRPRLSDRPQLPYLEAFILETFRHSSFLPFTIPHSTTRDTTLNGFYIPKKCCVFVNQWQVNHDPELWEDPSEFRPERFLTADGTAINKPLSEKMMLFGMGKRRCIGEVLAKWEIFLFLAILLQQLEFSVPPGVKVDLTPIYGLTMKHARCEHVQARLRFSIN
# Cytochrome P450 2B6 [9] = molecular target: T2, Cytochrome P450 2B6; assay: Drug metabolism in human liver microsomes assessed as monoclonal antibody-mediated inhibition of CYP2B6-mediated (R)-1-(4-(4-fluoro-2-(hydroxymethyl)-1H-indol-5-yloxy)-5-methylpyrrolo[1,2-f][1,2,4]triazin-6-yloxy)propan-2-ol formation at 2 and 20 uM for 30 mins by LC/MS analysis; conditions: 0.5 h
structure (smiles),measurement,setting,value
Cc1cc2c(F)c(Oc3ncnn4cc(OC[C@@H](C)O)c(C)c34)ccc2[nH]1 [BRIVANIB],Drug metabolism,Cytochrome P450 2A6 [1],metabolite_detected
same,Drug metabolism,Cytochrome P450 2B6 [2],metabolite_detected
same,Drug metabolism,Cytochrome P450 3A5,metabolite_detected
same,Drug metabolism,Cytochrome P450 2A6 [3],metabolite_detected
same,Km,[4],29.1 µM
same,Vmax,[5],89.1 pmol/min
same,CL,Cytochrome P450 3A4,0.016 µL/min
same,Drug metabolism,Liver microsome [6],metabolite_detected
same,Drug metabolism,Liver microsome [7],metabolite_detected
same,Drug metabolism,Liver microsome [8],metabolite_not_detected
same,CL,Cytochrome P450 1A2,0.031 µL/min
same,Drug metabolism,Cytochrome P450 2B6 [9],metabolite_detected
